# Measurements from patent publication US8754192B2, “Compositions comprising homogeneously glycosylated erythropoietin” (Sloan-Kettering Institute for Cancer Research, priority 2006, dated 2014).
# Tests used:
# [1] = Solubility of the peptide product in MeOH; assay type: physicochemical; settings: fully protected peptide made with pseudoproline/Dmb dipeptides, 'as high as', read-out: solubility (concentration easily achieved)
# Excerpt: To improve the peptide synthesis yields and purities, as well as the solubilities of crude products, we attempted various strategies, including the replacement of the synthesized chlorotrityl resin with commercially available NovaSyn® TGT resin (preloaded with Fmoc-amino acids), the use of Ser/Thr-derived oxazolidines (pseudoprolines) and Dmb (2,4-dimethoxybenzyl)dipeptides, 1, 2, 3 and 4 shown below. While 1, 2 and 4 are available in large scale, 3 had to be prepared from a multistep synthesis. These dipeptides could be incorporated into the growing peptide chain in the same manner as normal amino acids activated by HATU. The synthesis outlined below exploited all the beneficial properties of these strategies and produced […] as determined by LC-MS.
# [2] = molecular target: T1, EPO-R (Homo sapiens, UniProt P19235); settings: in vitro; compared to rHuEPO; cited from earlier work
# T1 sequence (P19235 25-508): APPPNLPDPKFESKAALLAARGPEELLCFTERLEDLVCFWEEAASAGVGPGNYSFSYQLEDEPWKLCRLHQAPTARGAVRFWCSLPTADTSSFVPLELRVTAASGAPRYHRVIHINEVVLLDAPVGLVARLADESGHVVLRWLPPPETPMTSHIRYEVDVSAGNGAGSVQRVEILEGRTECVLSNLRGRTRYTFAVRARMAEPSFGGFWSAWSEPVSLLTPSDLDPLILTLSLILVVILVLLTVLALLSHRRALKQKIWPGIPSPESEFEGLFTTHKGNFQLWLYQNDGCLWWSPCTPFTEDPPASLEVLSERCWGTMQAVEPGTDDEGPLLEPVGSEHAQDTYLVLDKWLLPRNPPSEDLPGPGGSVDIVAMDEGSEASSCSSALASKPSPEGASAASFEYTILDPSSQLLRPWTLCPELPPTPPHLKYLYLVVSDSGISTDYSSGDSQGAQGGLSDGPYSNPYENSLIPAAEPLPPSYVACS
# [3] = compared to rHuEPO; cited from earlier work
molecule,measurement,setting,value
COc1ccc(CN(C(=O)[C@H](CC(=O)OCc2ccc(NC(CC(C)C)=C3C(=O)CC(C)(C)CC3=O)cc2)NC(=O)[C@@H](NC(=O)[C@H](Cc2cn(C(c3ccccc3)(c3ccccc3)c3ccccc3)cn2)NC(=O)[C@H](CC(C)C)NC(=O)[C@H](CCC(=O)NC(c2ccccc2)(c2ccccc2)c2ccccc2)NC(=O)[C@H](CC(C)C)NC(=O)[C@@H]2CCCN2C(=O)[C@H](CCC(=O)OCc2ccc(NC(CC(C)C)=C3C(=O)CC(C)(C)CC3=O)cc2)NC(=O)[C@H](Cc2cn(C(=O)OC(C)(C)C)c3ccccc23)NC(=O)[C@@H]2CCCN2C(=O)[C@H](CCC(=O)NC(c2ccccc2)(c2ccccc2)c2ccccc2)NC(=O)[C@H](COC(C)(C)C)NC(=O)[C@@H]2COC(C)(C)N2C(=O)[C@H](CC(=O)OC(C)(C)C)NC(=O)[C@@H](NC(=O)[C@H](CC(C)C)NC(=O)[C@H](CC(C)C)NC(=O)[C@H](C)NC(=O)[C@@H](N)CCC(=O)NC(c2ccccc2)(c2ccccc2)c2ccccc2)C(C)C)C(C)C)[C@@H](CCCCNC(CC(C)C)=C2C(=O)CC(C)(C)CC2=O)C(=O)N[C@@H](C)C(=O)N[C@H](C(=O)N2[C@H](C(=O)NCC(=O)N[C@@H](CC(C)C)C(=O)N[C@@H](CCCNC(=N)NS(=O)(=O)c3c(C)c(C)c4c(c3C)CC(C)(C)O4)C(=O)N[C@@H](COC(C)(C)C)C(=O)N[C@@H](CC(C)C)C(=O)N3[C@H](C(=O)N[C@H](C(=O)N[C@@H](CC(C)C)C(=O)N[C@@H](CC(C)C)C(=O)N[C@@H](CCCNC(=N)NS(=O)(=O)c4c(C)c(C)c5c(c4C)CC(C)(C)O5)C(=O)N[C@@H](C)C(=O)N[C@@H](CC(C)C)C(=O)NCC(=O)O)[C@@H](C)OC(C)(C)C)[C@@H](C)OC3(C)C)COC2(C)C)C(C)C)c(OC)c1 [EPO(78-113)],solubility,[1],4.6 mM
darbepoetin alfa,affinity for the EPO-R,[2],diminished by approximately one-fourth
same,activity in vivo,[3],remained the same
